Reference: patent US12023333B2, “Phenyl-sulfamoyl.benzoyc acids as ERAP1 modulators” (GREY WOLF THERAPEUTICS LIMITED, priority 2019, dated 2024)

Target: T1, Purified ERAP1(37-941)-10His (ERAP1) (Homo sapiens, UniProt Q9NZ08)
T1 construct: Purified ERAP1(37-941)-10His (ERAP1); 10His (C)
Experiment: ERAP1 mediated hydrolysis of an amide substrate measured in a biochemical system (10-mer decapeptide substrate)
Settings: 10-mer substrate, 23° C. for 1 h, excitation 279 nm and emission 355 nm; read-out: IC50 vs Decapeptide WRVYEKC(Dnp)ALK-acid (where Dnp is Dinitrophenyl maleimide) (10-mer)
Description: Biological Assay 1: ERAP1 Mediated Hydrolysis of an Amide Substrate Measured in a Biochemical System
1× Assay buffer (AB): 25 mM Bis-tris propane, 0.05% w/v Hydroxypropylmethylcellulose pH 7.75 made with Optima grade water
Decapeptide WRVYEKC(Dnp)ALK-acid (where Dnp is Dinitrophenyl maleimide) (10-mer) L-Leucine 7-amido-4-methylcoumarin (L-AMC)
12.5 μL ERAP1 enzyme in 1×AB was combined with 250 nL test compound in DMSO. 12.5 μL of either 240 μM L-AMC in 1×AB or 100 μM 10-mer in 1×AB was added to the reaction and incubated at 23° C. for 1 h. For detection, plates were read at excitation 365 nm and emission 442 nm (L-AMC) or excitation 279 nm and emission 355 nm (10-mer). Compound IC50 was determined using a 4 parameter equation.

T1 sequence (Q9NZ08 37-941): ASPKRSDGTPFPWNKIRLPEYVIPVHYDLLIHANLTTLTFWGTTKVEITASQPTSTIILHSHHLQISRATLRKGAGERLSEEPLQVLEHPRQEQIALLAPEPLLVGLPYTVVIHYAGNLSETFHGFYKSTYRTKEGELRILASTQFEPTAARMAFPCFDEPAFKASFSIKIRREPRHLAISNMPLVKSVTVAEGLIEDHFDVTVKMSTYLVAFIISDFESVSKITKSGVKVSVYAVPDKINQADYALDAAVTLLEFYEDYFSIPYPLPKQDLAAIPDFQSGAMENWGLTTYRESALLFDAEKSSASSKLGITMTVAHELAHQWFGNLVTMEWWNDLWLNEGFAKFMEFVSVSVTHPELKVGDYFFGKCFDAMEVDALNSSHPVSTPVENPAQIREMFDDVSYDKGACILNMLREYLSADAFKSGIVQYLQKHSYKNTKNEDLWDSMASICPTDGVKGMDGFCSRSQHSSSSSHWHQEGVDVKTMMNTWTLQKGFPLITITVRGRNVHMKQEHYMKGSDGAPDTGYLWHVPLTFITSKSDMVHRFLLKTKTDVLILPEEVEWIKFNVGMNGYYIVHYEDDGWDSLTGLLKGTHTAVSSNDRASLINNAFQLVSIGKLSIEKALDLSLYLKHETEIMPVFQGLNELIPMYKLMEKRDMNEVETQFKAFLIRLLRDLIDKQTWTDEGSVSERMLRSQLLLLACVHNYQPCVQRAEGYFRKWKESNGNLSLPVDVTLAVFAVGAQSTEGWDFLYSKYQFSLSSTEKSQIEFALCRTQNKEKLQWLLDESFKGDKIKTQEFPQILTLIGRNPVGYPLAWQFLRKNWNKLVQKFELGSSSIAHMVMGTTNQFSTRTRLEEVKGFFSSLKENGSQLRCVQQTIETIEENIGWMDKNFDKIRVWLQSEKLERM

SMILES | IC50 [nM]
COc1ccc(C(=O)O)cc1S(=O)(=O)Nc1cc(C(F)(F)F)ccc1-n1cccn1 [Example 30, 3-(N-(2-(pyrazol-1-yl)-5-(trifluoromethyl)phenyl)sulfamoyl)-4-methoxybenzoic acid] | < 5000
COc1ccc(-c2ccc(C(F)(F)F)cc2NS(=O)(=O)c2cc(C(=O)O)ccc2OC)cc1 [Example 48, 4-methoxy-3-(N-(4′-methoxy-4-(trifluoromethyl)-[1,1′-biphenyl]-2-yl)sulfamoyl)benzoic acid] | > 5000
COc1ccc(C(=O)O)cc1S(=O)(=O)Nc1cc(C(F)(F)F)ccc1-c1cnco1 [Example 25, 4-methoxy-3-(N-(2-(oxazol-5-yl)-5-(trifluoromethyl)phenyl)sulfamoyl) benzoic acid] | < 5000
COc1ccc(C(=O)O)cc1S(=O)(=O)Nc1cc(C(F)(F)F)ccc1-c1cccc(C#N)c1 [Example 7, 3-(N-(3′-cyano-4-(trifluoromethyl)-[1,1′-biphenyl]-2-yl)sulfamoyl)-4-methoxybenzoic acid] | < 500
Cc1sncc1-c1ccc(-n2cccc2)c(NS(=O)(=O)c2cc(C(=O)O)ccc2C2CC2)c1 [Example 150, 4-cyclopropyl-3-(N-(5-(5-methylisothiazol-4-yl)-2-(pyrrol-1-yl)phenyl)sulfamoyl)benzoic acid] | < 500
O=C(O)c1ccc(C2CC2)c(S(=O)(=O)Nc2cc(-n3cnnn3)ccc2-n2cccc2)c1 [Example 208, 3-(N-(2-(pyrrol-1-yl)-5-(tetrazol-1-yl)phenyl)sulfamoyl)-4-cyclopropylbenzoic acid] | < 500
N#Cc1ccc(-c2cccc(F)c2)c(NS(=O)(=O)c2cc(C(=O)O)ccc2C2CC2)c1 [Example 94, 3-(N-(4-cyano-3′-fluoro-[1,1-biphenyl]-2-yl)sulfamoyl)-4-cyclopropylbenzoic acid] | < 500
COc1ccc(C(=O)O)cc1S(=O)(=O)Nc1cc(C(F)(F)F)ccc1-c1ccccc1C(C)C [Example 51, 3-(N-(2′-isopropyl-4-(trifluoromethyl)-[1,1′-biphenyl]-2-yl)sulfamoyl)-4-methoxybenzoic acid] | < 5000
Cc1ccc(-c2ccc(-c3cnsc3C)cc2NS(=O)(=O)c2cc(C(=O)O)ccc2C2CC2)s1 [Example 140, 4-cyclopropyl-3-(N-(5-(5-methylisothiazol-4-yl)-2-(5-methylthiophen-2-yl)phenyl)sulfamoyl)benzoic acid] | < 500
COc1ccc(C(=O)O)cc1S(=O)(=O)Nc1cc(C#N)ccc1-c1cccc(F)c1 [Example 61, 3-(N-(4-cyano-3′-fluoro-[1,1′-biphenyl]-2-yl)sulfamoyl)-4-methoxybenzoic acid] | < 500
COc1ccc(C(=O)O)cc1S(=O)(=O)Nc1cc(-c2nnn[nH]2)ccc1-c1ccccc1 [Example 63, 3-(N-(4-(tetrazol-5-yl)-[1,1′-biphenyl]-2-yl)sulfamoyl)-4-methoxybenzoic acid] | < 500
COc1ccc(C(=O)O)cc1S(=O)(=O)Nc1cc(C(F)(F)F)ccc1-c1ccnn1CC(C)C [Example 5, 3-(N-(2-(1-isobutylpyrazol-5-yl)-5-(trifluoromethyl)phenyl)sulfamoyl)-4-methoxybenzoic acid] | < 5000
O=C(O)c1ccc(C2CC2)c(S(=O)(=O)Nc2cc(C(F)(F)F)ccc2-n2cccc2)c1 [Example 99, 3-(N-(2-pyrrol-1-yl-5-(trifluoromethyl)phenyl)sulfamoyl)-4-cyclopropylbenzoic acid] | < 500
CCc1ccc(C(=O)O)cc1S(=O)(=O)Nc1cc(C#N)ccc1-c1ccc(C)s1 [Example 80, 3-(N-(5-cyano-2-(5-methylthiophen-2-yl)phenyl)sulfamoyl)-4-ethylbenzoic acid] | < 500
Cn1ncnc1-c1cc(NS(=O)(=O)c2cc(C(=O)O)ccc2C2CC2)c(-c2ccccn2)cc1Cl [Example 189, 3-(N-(4-chloro-5-(1-methyl-1,2,4-triazol-5-yl)-2-(pyridin-2-yl)phenyl)sulfamoyl)-4-cyclopropylbenzoic acid] | < 500
CCc1ccc(C(=O)O)cc1S(=O)(=O)Nc1cc(S(C)(=O)=O)ccc1-c1ccc(F)s1 [Example 106, 4-ethyl-3-(N-(2-(5-fluorothiophen-2-yl)-5-(methylsulfonyl)phenyl)sulfamoyl)benzoic acid] | < 500
N#Cc1cc(NS(=O)(=O)c2cc(C(=O)O)ccc2C2CC2)c(-c2ccc(Cl)s2)cc1Cl [Example 134, 3-(N-(4-chloro-2-(5-chlorothiophen-2-yl)-5-cyanophenyl)sulfamoyl)-4-cyclopropylbenzoic acid] | < 500
COc1ccc(C(=O)O)cc1S(=O)(=O)Nc1cc(C(F)(F)F)ccc1-n1cccc1 [Example 35, 3-(N-(2-(pyrrol-1-yl)-5-(trifluoromethyl)phenyl)sulfamoyl)-4-methoxybenzoic acid] | < 500
Cc1ccc(-c2ccc(S(C)(=O)=O)cc2NS(=O)(=O)c2cc(C(=O)O)ccc2C2CC2)s1 [Example 103, 4-cyclopropyl-3-(N-(5-(methylsulfonyl)-2-(5-methylthiophen-2-yl)phenyl)sulfamoyl)benzoic acid] | < 500
CCc1ccc(C(=O)O)cc1S(=O)(=O)Nc1cc(S(C)(=O)=O)ccc1-c1ccc(Cl)s1 [Example 89, 3-(N-(2-(5-chlorothiophen-2-yl)-5-(methylsulfonyl)phenyl)sulfamoyl)-4-ethylbenzoic acid] | < 500

Next, values leading:

IC50 [nM] | SMILES
< 500 | CCc1ccc(C(=O)O)cc1S(=O)(=O)Nc1cc(C(F)(F)F)ccc1-n1cccc1 [Example 36, 3-(N-(2-(pyrrol-1-yl)-5-(trifluoromethyl)phenyl)sulfamoyl)-4-ethylbenzoic acid]
< 500 | O=C(O)c1ccc(C2CC2)c(S(=O)(=O)Nc2cc(C(F)(F)F)ccc2-c2ccc(C3CC3)s2)c1 [Example 114, 4-cyclopropyl-3-(N-(2-(5-cyclopropylthiophen-2-yl)-5-(trifluoromethyl)phenyl)sulfamoyl)benzoic acid]
< 500 | O=C(O)c1ccc(C2CC2)c(S(=O)(=O)Nc2cc(-c3ccns3)ccc2-c2ccccc2)c1 [Example 135, 4-cyclopropyl-3-(N-(4-(isothiazol-5-yl)-[1,1′-biphenyl]-2-yl)sulfamoyl)benzoic acid]
< 500 | COc1ccc(C(=O)O)cc1S(=O)(=O)Nc1cc(S(C)(=O)=O)ccc1-c1cccs1 [Example 78, 4-methoxy-3-(N-(5-(methylsulfonyl)-2-(thiophen-2-yl)phenyl)sulfamoyl) benzoic acid]
< 500 | CS(=O)(=O)c1cc(NS(=O)(=O)c2cc(C(=O)O)ccc2C2CC2)c(-c2ccccn2)cc1Cl [Example 171, 3-(N-(4-chloro-5-(methylsulfonyl)-2-(pyridin-2-yl)phenyl)sulfamoyl)-4-cyclopropylbenzoic acid]
< 500 | O=C(O)c1ccc(C2CC2)c(S(=O)(=O)Nc2cc(C(F)(F)F)c(Cl)cc2-n2cccc2)c1 [Example 156, 3-(N-(4-chloro-2-(pyrrol-1-yl)-5-(trifluoromethyl)phenyl)sulfamoyl)-4-cyclopropylbenzoic acid]
< 500 | N#Cc1cc(NS(=O)(=O)c2cc(C(=O)O)ccc2C2CC2)c(-c2ccsn2)cc1Cl [Example 180, 3-(N-(4-chloro-5-cyano-2-(isothiazol-3-yl)phenyl)sulfamoyl)-4-cyclopropylbenzoic acid]
< 500 | Cn1nccc1-c1cc(NS(=O)(=O)c2cc(C(=O)O)ccc2C2CC2)c(-c2ccccn2)cc1F [Example 185, 4-cyclopropyl-3-(N-(4-fluoro-5-(1-methylpyrazol-5-yl)-2-(pyridin-2-yl)phenyl)sulfamoyl)benzoic acid]
< 500 | COc1ccc(C(=O)O)cc1S(=O)(=O)Nc1cc(S(C)(=O)=O)ccc1-c1ccccn1 [Example 44, 4-methoxy-3-(N-(5-(methylsulfonyl)-2-(pyridin-2-yl)phenyl)sulfamoyl)benzoic acid]
< 500 | COc1ccc(C(=O)O)cc1S(=O)(=O)Nc1cc(C#N)ccc1-n1cccc1 [Example 121, 3-(N-(5-cyano-2-(pyrrol-1-yl)phenyl)sulfamoyl)-4-methoxybenzoic acid]
< 500 | N#Cc1cc(NS(=O)(=O)c2cc(C(=O)O)ccc2C2CC2)c(-n2cccc2)cc1F [Example 157, 3-(N-(5-cyano-4-fluoro-2-(pyrrol-1-yl)phenyl)sulfamoyl)-4-cyclopropylbenzoic acid]
< 500 | COc1ccc(C(=O)O)cc1S(=O)(=O)Nc1cc(C(F)(F)F)ccc1-c1ccccn1 [Example 26, 4-methoxy-3-(N-(2-(pyridin-2-yl)-5-(trifluoromethyl)phenyl)sulfamoyl) benzoic acid]
< 500 | N#Cc1ccc(-c2cscn2)c(NS(=O)(=O)c2cc(C(=O)O)ccc2C2CC2)c1 [Example 159, 3-(N-(5-cyano-2-(thiazol-4-yl)phenyl)sulfamoyl)-4-cyclopropylbenzoic acid]
< 500 | N#Cc1ccc(-c2cccs2)c(NS(=O)(=O)c2cc(C(=O)O)ccc2C2CC2)c1 [Example 75, 3-(N-(5-cyano-2-(thiophen-2-yl)phenyl)sulfamoyl)-4-cyclopropylbenzoic acid]
< 500 | O=C(O)c1ccc(C2CC2)c(S(=O)(=O)Nc2cc(C(F)(F)F)ccc2-c2ccsn2)c1 [Example 151, 4-cyclopropyl-3-(N-(2-(isothiazol-3-yl)-5-(trifluoromethyl)phenyl)sulfamoyl)benzoic acid]
< 500 | COc1ccc(C(=O)O)cc1S(=O)(=O)Nc1cc(C#N)ccc1-c1ccc(F)s1 [Example 100, 3-(N-(5-cyano-2-(5-fluorothiophen-2-yl)phenyl)sulfamoyl)-4-methoxybenzoic acid]
